Patent US20130196362A1, “DIARYLAMINE-BASED FLUOROGENIC PROBES FOR DETECTION OF PEROXYNITRITE” (THE UNIVERSITY OF HONG KONG, priority 2012, published 2013)
One block for each compound: values may come before it.

Key:
[1] = tested on: SH-SY5Y neuroblastoma cells; assay: Fluorescent microscopy of SH-SY5Y cells with or without SIN-1; assay type: cell-based, Human; conditions: incubated 1 hr; for fluorescence in the absence of stimulants: washed with PBS, no SIN-1; for fluorescence after treatment with stimulants: with SIN-1
Protocol: SH-SY5Y cells were co-stained with different compounds with or without SIN-1 for 1 h, and then washed quickly with PBS for 3 times and maintained in non-phenol red medium. Left: no SIN-1 treatment; Right: with SIN-1 treatment.
SH-SY5Y cells were co-stained with different compounds with or without SIN-1 for 1 h, and then washed quickly with PBS for 3 times and maintained in non-phenol red medium. Left: no SIN-1 treatment; Middle: with 1 mM SIN-1 treatment; Right: with 100 μM SIN-1 treatment.
SH-SY5Y cells were co-stained with different compounds with or without SIN-1 for 1 h, and then washed quickly with PBS for 3 times and maintained in non-phenol red medium. Left: no SIN-1 treatment; Middle: with 100 μM SIN-1 treatment; Right: with 200 μM SIN-1 treatment.
(§1) Human SH-SY5Y neuroblastoma cells (ATCC, USA) were maintained in high glucose Dulbecco's Modified Eagle Medium (DMEM, Hyclone) supplemented with 10% fetal bovine serum (FBS, Gibco), 1% penicillin/streptomycin (PS, Gibco) and 1% L-glutamine (Gibco). Mouse C17.2 neural progenitor cells (ATCC, USA) were maintained in high glucose Dulbecco's Modified Eagle Medium supplemented with 8% fetal bovine serum (Gibco), 4% horse serum (Gibco), 1% penicillin/streptomycin and 1% L-glutamine. Mouse RAW264.7 macrophage cells (ATCC, USA) were maintained in high glucose Dulbecco's Modified Eagle Medium (DMEM, Hyclone) supplemented with 10% fetal bovine serum (Gibco), 1% penicillin/streptomycin (Gibco) and 1% L-glutamine.
(§2) Generally, cells were grown to confluence prior to experiment. Cells were incubated with Compounds) 6, 7, 8, 14, 20, 21, 24, 27, and 32, respectively for 1 hr, and then washed three times with PBS buffer.

[2] = tested on: RAW264.7 macrophage cells; assay: Fluorescent microscopy of RAW264.7 macrophages stimulated with LPS and IFN-γ; assay type: cell-based, Mouse; conditions: 500 nM
Protocol: The macrophage cells were incubated with Compound 27 at a concentration of 500 nM. Upper: Control; Lower: The macrophages were stimulated with LPS and IFN-γ for 14 hr. Left: Nuclear staining with Hoechst; Middle: Compound 27; Right: Merged.
as §1, §2

[3] = Fluorescence response of probe to increasing peroxynitrite in phosphate buffer
Protocol: (§3) FIG. 1A depicts fluorescence spectra showing fluorescence intensities of compound 2 after treatment with different amounts of peroxynitrite. […] The spectra were acquired by dissolving Compound 2 in 0.1 M phosphate buffer at pH 7.4 to form a 1 μM solution, with excitation and emission spectra at 510 nm and 530 nm, respectively. The concentration of highly reactive oxygen species hydroxyl radical (.OH), hypochlorous acid (^−OCl), and peroxynitrite (ONOO^−) is 1 μM. The concentration of ^1O2, O2.^−, NO, ROO. and H2O2 is 10 μM.
(§4) FIG. 2A depicts fluorescence spectra showing fluorescence intensities of Compound 11 after treatment with different amounts of peroxynitrite. […] The spectra were acquired by dissolving […] in 0.1M phosphate buffer at pH 7.4 to form a 2 μM solution, with excitation and emission at 547 nm and 570 nm, respectively. The concentration of highly reactive oxygen species hydroxyl radical (.OH), hypochlorous acid (^−OCl), and peroxynitrite (ONOO^−) is 2 μM. The concentration of ^1O2, O2.^−, NO, ROO. and H2O2 is 20 μM.
(§5) FIG. 3A depicts fluorescence spectra showing fluorescence intensities of Compound 22 after treatment with different amounts of peroxynitrite. […] The spectra were acquired by dissolving Compound 22 in 0.1M phosphate buffer at pH 7.4 to form a 5 μM solution, with excitation at 600 nm and emission at 617 nm, respectively. The concentration of highly reactive oxygen species hydroxyl radical (.OH), hypochlorous acid (^−OCl), and peroxynitrite (ONOO^−) is 5 μM. The concentration of ^1O2, O2.^−, NO, ROO. and H2O2 is 50 μM.
as §5, with “4A” for “3A”, “25” for “22”, “650” for “600”, “665” for “617”
(§6) FIG. 5A depicts fluorescence spectra showing fluorescence intensities of Compound 30 after treatment with different amounts of peroxynitrite. […] The spectra were acquired by dissolving Compound 30 in 0.1 M phosphate buffer at pH 7.4 and exciting at 515 nm. The concentration of highly reactive oxygen species hypochlorous acid (^−OCl) and peroxynitrite (ONOO^−) is 1 μM. The concentration of hydroxyl radical (.OH) is 1 μM or 10 μM. The concentration of ^1O2, O2.^−, NO, ROO. and H2O2 is 10 μM or 100 μM. (see figure for exact concentrations of certain ROS and RNS)
Specifically, Compound 2 is dissolved in 0.1 M phosphate buffer at pH 7.4 to form a 1 μM solution, with excitation and emission spectra at 510 nm and 530 nm, respectively. The 1 μM solution of Compound 2 is treated with peroxynitrite at various concentrations.
Specifically, Compound 11 is dissolved in 0.1 M phosphate buffer at pH 7.4 to form a 2 μM solution, with excitation and emission spectra at 547 nm and 570 nm, respectively. The 2 μM solution of Compound 11 is treated with peroxynitrite at various concentrations.
Specifically, Compound 22 is dissolved in 0.1 M phosphate buffer at pH 7.4 to form a 5 μM solution, with excitation and emission spectra at 600 nm and 617 nm, respectively. The 5 μM solution of Compound 22 is treated with peroxynitrite at various concentrations. […]

[4] = Reactivity of probe toward different ROS and RNS (selectivity) in phosphate buffer; conditions: for increase in fluorescence intensity with peroxynitrite versus other ROS and RNS: OCl-, pH 7.4
Protocol: as §3, §4, §5
as §5, with “4A” for “3A”, “25” for “22”, “650” for “600”, “665” for “617”
as §6
(§7) The reactivity of Compound 2 is compared toward different reactive oxygen species (ROS) and reactive nitrogen species (RNS). Specifically, the 1 μM solution of compound 2 is treated with various ROS and RNS. The concentration of highly reactive oxygen species (hydroxyl radical (.OH), hypochlorous acid (^−OCl), and peroxynitrite (ONOO^−)) is 1 μM. The concentration of ^1O2, O2.^−, NO, ROO. and H2O2 is 10 μM.
as §7, with “Compound 11” for “Compound 2”, “compared with” for “compared toward”, “the 2” for “the 1”, “compound 11” for “compound 2”, “is 2” for “is 1”, “is 20” for “is 10”
The reactivity of Compound 22 is compared with different reactive oxygen species (ROS) and reactive nitrogen species (RNS). Specifically, the 5 μM solution of compound 22 is treated with various ROS and RNS. The concentration of highly reactive oxygen species (hydroxyl radical (.OH), hypochlorous acid (^−OCl), and peroxynitrite (ONOO^−)) is 5 μM. The concentration of ^1O2, O2.^−, NO, ROO. and H2O2 is 50 μM. […]

[5] = tested on: C17.2 neural progenitor cells; assay: Fluorescent microscopy of C17.2 cells with or without SIN-1; assay type: cell-based, Mouse; conditions: for fluorescence in the absence of stimulants: no SIN-1; for fluorescence after treatment with stimulants: with SIN-1
Protocol: The cells were incubated with Compound 20 or 21 at a concentration of 1 μM, and then treated with (Lower) or without (Upper) SIN-1.
The cells were incubated with Compound 32 at a concentration of 5 μM.
as §1, §2

Compound: COC(=O)CN(CC(=O)OC)C(=O)c1ccc(C2=C3C=CC(=O)C=C3[Si](C)(C)c3cc(N(C)c4ccc(O)cc4)ccc32)c(C)c1 [Compound 24]
- fluorescence in the absence of stimulants [1]: very weak fluorescence
- fluorescence after treatment with stimulants [1]: strongly induced

Compound: CC[N+]1=c2cc3c(cc2C(C)CC1(C)C)=C(c1ccc(C(=O)N(CC(=O)OC)CC(=O)OC)cc1C)c1ccc(N(C)c2ccc(O)cc2)cc1[Si]3(C)C (centres unmarked) [Compound 27]
- fluorescence after treatment with stimulants ([2]; LPS and IFN-γ for 14 hr): strongly induced
- fluorescence in the absence of stimulants ([2]; control): very weak fluorescence

Compound: CC[N+]1=c2cc3c(cc2C(C)CC1(C)C)=C(c1ccc(C(=O)O)cc1C)c1ccc(N(C)c2ccc(O)cc2)cc1[Si]3(C)C (centres unmarked) [Compound 25]
- fluorescence intensity after treatment with peroxynitrite at various concentrations ([3]; 5 μM solution in 0.1 M phosphate buffer pH 7.4, excitation 650 nm, emission 665 nm): increases with increasing concentration of peroxynitrite
- increase in fluorescence intensity with peroxynitrite versus other ROS and RNS ([4]; 5 μM probe, ex 650/em 665 nm, .OH, ONOO- 5 μM, 1O2, O2.-, NO, ROO., H2O2 50 μM): much higher increase in fluorescence intensity

Compound: COC(=O)CN(CC(=O)OC)C(=O)c1ccc2c(c1)C(=O)OC21c2ccc(OC(C)=O)cc2Oc2cc(N(C)c3ccc(O)cc3)ccc21 (centres unmarked) [Compound 7]
- fluorescence in the absence of stimulants [1]: very weak fluorescence
- fluorescence after treatment with stimulants [1]: strongly induced

Compound: CN(c1ccc(O)cc1)c1ccc2c(-c3ccc(C(=O)N(CC(=O)O)CC(=O)O)cc3C(=O)O)c3ccc(=O)cc-3oc2c1 [Compound 2]
- fluorescence intensity after treatment with peroxynitrite at various concentrations ([3]; 1 μM solution in 0.1 M phosphate buffer pH 7.4, excitation 510 nm, emission 530 nm): increases with increasing concentration of peroxynitrite
- increase in fluorescence intensity with peroxynitrite versus other ROS and RNS ([4]; 1 μM probe, .OH, ONOO- 1 μM, 1O2, O2.-, NO, ROO., H2O2 10 μM): much higher increase in fluorescence intensity

Compound: Cc1cc(C(=O)O)ccc1C1=C2C=CC(=O)C=C2[Si](C)(C)c2cc(N(C)c3ccc(O)cc3)ccc21 [Compound 22]
- fluorescence intensity after treatment with peroxynitrite at various concentrations ([3]; 5 μM solution in 0.1 M phosphate buffer pH 7.4, excitation 600 nm, emission 617 nm): increases with increasing concentration of peroxynitrite
- increase in fluorescence intensity with peroxynitrite versus other ROS and RNS ([4]; 5 μM probe, ex 600/em 617 nm, .OH, ONOO- 5 μM, 1O2, O2.-, NO, ROO., H2O2 50 μM): much higher increase in fluorescence intensity

Compound: COC(=O)CCN(CCC(=O)OC)C(=O)c1ccc2c(c1)C(=O)OC21c2ccc(OC(C)=O)cc2Oc2cc(N(C)c3ccc(O)cc3)ccc21 (centres unmarked) [Compound 8]
- fluorescence in the absence of stimulants [1]: very weak fluorescence
- fluorescence after treatment with stimulants [1]: strongly induced

Compound: CC1CC(C)(C)[N+](CCCC(=O)O)=c2cc3c(cc21)=C(c1ccccc1C(=O)O)c1cc(Cl)c(N(C)c2ccc(O)cc2)cc1O3 (centres unmarked) [Compound 11]
- fluorescence intensity after treatment with peroxynitrite at various concentrations ([3]; 2 μM solution in 0.1 M phosphate buffer pH 7.4, excitation 547 nm, emission 570 nm): increases with increasing concentration of peroxynitrite
- increase in fluorescence intensity with peroxynitrite versus other ROS and RNS ([4]; 2 μM probe, .OH, ONOO- 2 μM, 1O2, O2.-, NO, ROO., H2O2 20 μM): much higher increase in fluorescence intensity

Compound: CC[N+]1=c2cc3c(cc2C(C)CC1(C)C)=C(c1ccc(C)cc1C)c1ccc(N(C)c2ccc(O)cc2)cc1O3 (centres unmarked) [Compound 21]
- fluorescence in the absence of stimulants [5]: very weak fluorescence
- fluorescence after treatment with stimulants [5]: strongly induced

- emission maximum ([4]; 0.1 M phosphate buffer pH 7.4, exciting at 515 nm): 540 nm
Compound: CN(c1ccc(O)cc1)c1ccc2c(-c3ccccc3C(=O)N3CCN(C(=O)CCCC[P+](c4ccccc4)(c4ccccc4)c4ccccc4)CC3)c3ccc(=O)cc-3oc2c1 [Compound 30]
- fluorescence intensity after treatment with peroxynitrite at various concentrations ([3]; 1 μM solution in 0.1 M phosphate buffer pH 7.4, excited at 515 nm): increases with increasing concentration of peroxynitrite
- increase in fluorescence intensity with peroxynitrite versus other ROS and RNS ([4]; 1 μM solution of compound 30, ex 515 nm, em 540 nm, ONOO- 1 μM, .OH 1 or 10 μM, others 10 or 100 μM): sensitively and selectively detects peroxynitrite

Compound: CC[N+]1=c2cc3c(cc2C(C)CC1(C)C)=C(c1ccc(CCl)cc1C)c1ccc(N(C)c2ccc(O)cc2)cc1O3 (centres unmarked) [Compound 20]
- fluorescence in the absence of stimulants [5]: very weak fluorescence
- fluorescence after treatment with stimulants [5]: strongly induced
